Literature values, collected in patent US20260140098A1, “METHOD FOR TREATING PLASMA SAMPLE CONTAINING (7aS,2'S)-2-OXO-CLOPIDOGREL AND METHOD FOR DETERMINING THE SAME” (CHENGDU SHIBEIKANG BIOMEDICAL TECHNOLOGY CO., LTD., priority 2021, published 2026).

Tests used:
[1] = target: CYP2B6 (Homo sapiens, UniProt P20813); conditions: by CYP2B6; cited from earlier work
[2] = target: CYP2C19 (Homo sapiens, UniProt P33261); conditions: by CYP2C19; cited from earlier work
[3] = target: CYP1A2 (Homo sapiens, UniProt P05177); conditions: by CYP1A2; cited from earlier work
Sequence of CYP1A2 (P05177 whole entry): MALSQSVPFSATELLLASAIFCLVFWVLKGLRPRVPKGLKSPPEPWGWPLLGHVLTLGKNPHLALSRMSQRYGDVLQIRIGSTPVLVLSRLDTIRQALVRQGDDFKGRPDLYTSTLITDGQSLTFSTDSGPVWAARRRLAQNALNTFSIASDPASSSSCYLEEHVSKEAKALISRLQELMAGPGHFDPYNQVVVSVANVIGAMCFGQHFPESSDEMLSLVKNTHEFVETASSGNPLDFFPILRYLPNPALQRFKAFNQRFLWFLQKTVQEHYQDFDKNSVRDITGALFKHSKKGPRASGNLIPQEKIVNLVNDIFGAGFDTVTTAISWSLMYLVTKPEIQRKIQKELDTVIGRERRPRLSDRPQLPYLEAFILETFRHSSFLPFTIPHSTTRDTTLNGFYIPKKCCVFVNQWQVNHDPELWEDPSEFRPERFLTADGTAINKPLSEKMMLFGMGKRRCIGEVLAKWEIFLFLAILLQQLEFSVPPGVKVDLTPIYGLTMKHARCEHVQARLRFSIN

Sequence of CYP2B6 (P20813 whole entry): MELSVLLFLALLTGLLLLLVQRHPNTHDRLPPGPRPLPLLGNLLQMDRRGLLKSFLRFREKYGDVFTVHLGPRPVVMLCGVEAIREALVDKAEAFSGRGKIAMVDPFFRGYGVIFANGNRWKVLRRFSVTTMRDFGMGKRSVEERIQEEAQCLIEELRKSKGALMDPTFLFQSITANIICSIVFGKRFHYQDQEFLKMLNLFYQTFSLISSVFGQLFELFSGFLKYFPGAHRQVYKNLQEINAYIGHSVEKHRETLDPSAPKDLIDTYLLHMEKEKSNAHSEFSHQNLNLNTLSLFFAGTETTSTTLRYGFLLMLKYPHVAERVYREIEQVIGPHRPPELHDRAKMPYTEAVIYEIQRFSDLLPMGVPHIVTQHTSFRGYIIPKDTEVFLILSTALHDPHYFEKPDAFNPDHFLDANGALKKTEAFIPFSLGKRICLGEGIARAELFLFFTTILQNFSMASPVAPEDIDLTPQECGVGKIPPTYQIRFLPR
Sequence of CYP2C19 (P33261 whole entry): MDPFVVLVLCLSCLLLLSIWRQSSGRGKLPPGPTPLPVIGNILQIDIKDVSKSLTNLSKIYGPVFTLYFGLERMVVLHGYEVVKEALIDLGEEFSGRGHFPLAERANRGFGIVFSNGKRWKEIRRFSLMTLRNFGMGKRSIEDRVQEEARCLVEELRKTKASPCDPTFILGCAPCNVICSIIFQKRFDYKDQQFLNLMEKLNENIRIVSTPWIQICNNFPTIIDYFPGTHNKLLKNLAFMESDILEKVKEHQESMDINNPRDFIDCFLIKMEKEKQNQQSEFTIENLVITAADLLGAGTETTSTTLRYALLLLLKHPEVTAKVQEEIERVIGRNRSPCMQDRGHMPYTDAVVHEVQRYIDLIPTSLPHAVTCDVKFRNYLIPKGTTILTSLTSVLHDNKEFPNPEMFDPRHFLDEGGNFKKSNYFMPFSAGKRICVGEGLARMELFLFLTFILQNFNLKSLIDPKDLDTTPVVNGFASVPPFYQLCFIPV

For `COC(=O)[C@H](c1ccccc1Cl)N1CCc2sccc2C1` [clopidogrel], the “Share of Phase I metabolism into inactive 2-oxo-clopidogrel” value (from here on “Share”) [1] is given as roughly 19%, the “Share” value [2] is given as roughly 45% and the “Share” value [3] is given as roughly 36%.
